ChEMBL document CHEMBL1201862, “PubChem BioAssay data set” (2004)
Active and inactive are the calls of the source.

Legend:
[1] = target: T1, Sentrin-specific protease 7 (Homo sapiens, UniProt Q9BQF6); assay type: functional;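 note: Luminescence-based dose-response confirmation of ultra-high-throughput screening hits, measuring inhibition of SENP7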
T1 sequence (Q9BQF6 whole entry): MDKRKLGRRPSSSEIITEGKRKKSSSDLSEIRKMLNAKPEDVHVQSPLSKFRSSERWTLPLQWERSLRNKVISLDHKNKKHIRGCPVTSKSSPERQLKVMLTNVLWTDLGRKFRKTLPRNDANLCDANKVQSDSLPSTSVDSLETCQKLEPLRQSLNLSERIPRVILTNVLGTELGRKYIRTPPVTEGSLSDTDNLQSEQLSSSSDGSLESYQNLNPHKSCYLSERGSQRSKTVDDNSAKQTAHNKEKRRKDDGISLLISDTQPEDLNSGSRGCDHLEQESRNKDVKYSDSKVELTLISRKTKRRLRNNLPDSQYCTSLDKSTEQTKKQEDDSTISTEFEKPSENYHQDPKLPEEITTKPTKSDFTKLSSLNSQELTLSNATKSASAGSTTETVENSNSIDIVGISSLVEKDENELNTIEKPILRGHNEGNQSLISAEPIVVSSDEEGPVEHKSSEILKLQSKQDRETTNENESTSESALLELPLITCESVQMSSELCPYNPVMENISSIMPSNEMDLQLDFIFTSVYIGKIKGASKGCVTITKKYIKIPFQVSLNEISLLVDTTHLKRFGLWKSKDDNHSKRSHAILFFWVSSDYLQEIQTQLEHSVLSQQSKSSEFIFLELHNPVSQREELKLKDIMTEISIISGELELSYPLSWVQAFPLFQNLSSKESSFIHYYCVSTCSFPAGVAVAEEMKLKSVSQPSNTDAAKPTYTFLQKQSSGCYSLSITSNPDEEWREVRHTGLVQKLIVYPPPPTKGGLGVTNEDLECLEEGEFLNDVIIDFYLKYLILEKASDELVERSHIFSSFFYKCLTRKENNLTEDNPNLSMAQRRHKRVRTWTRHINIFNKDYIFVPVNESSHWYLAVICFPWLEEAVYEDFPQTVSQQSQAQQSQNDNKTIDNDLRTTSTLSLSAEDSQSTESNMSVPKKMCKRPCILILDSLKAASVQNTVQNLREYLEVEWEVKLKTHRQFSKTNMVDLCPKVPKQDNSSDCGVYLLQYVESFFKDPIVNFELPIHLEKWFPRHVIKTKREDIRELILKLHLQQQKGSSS

Protein RecA = target: T2, Protein RecA (Mycobacterium tuberculosis, UniProt P9WHJ3); assay: Fluorescence Cell-Free Homogeneous Dose Retest to Identify Inhibitors of RecA-Intein Splicing Activity. [Related pubchem assays (depositor defined):AID2097, AID2223, AID489010, AID492950]; assay type: functional
T2 sequence (P9WHJ3 whole entry): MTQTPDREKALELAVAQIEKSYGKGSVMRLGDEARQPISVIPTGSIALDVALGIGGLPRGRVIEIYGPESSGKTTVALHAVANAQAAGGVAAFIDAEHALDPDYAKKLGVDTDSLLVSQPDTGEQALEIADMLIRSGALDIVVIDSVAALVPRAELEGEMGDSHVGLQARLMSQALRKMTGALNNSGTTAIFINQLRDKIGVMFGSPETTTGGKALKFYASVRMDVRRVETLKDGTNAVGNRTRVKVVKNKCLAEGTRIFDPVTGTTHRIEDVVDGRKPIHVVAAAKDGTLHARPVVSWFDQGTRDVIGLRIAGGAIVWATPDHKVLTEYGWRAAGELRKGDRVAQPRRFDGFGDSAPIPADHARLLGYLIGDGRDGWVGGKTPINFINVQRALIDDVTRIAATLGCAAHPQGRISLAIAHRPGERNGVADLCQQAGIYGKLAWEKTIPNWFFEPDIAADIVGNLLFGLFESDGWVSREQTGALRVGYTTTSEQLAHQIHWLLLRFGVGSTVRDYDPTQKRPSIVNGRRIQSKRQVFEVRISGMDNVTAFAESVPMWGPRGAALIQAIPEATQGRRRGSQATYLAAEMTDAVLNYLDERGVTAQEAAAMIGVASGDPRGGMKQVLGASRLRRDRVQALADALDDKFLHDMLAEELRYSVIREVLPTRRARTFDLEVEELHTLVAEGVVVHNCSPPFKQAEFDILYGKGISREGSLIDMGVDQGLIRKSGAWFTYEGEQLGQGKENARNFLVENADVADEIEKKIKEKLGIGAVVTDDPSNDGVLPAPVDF

[2] = NIH-3T3 fibroblast cytotoxicity, dose response, cytotoxicity control, cell-based, fluorescence, Alamar Blue, secondary assay (AID 2327); assay type: functional;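 note: NIH-3T3 mouse fibroblasts cultured with fluconazole at 8 µg/mL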
cells = assay type: functional, cell-based
[3] = fluconazole-exposed Candida albicans growth modulators – fluorescence, retest, confirmation (AID 2467); assay type: functional, cell-based
[4] = non-specific 3'UTR reporter inhibition in Clone20-Shn3RL – cell-based, Renilla luciferase, cherry-picked, counter-screen for Shn3 inhibitor project, dose response (AID 624133); assay type: functional
[5] = target: Protein kinase C zeta type (Homo sapiens, UniProt Q05513); assay type: functional;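 note: measured as one member of a broad kinase profiling panel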
[6] = target: Protein kinase C delta type (Homo sapiens, UniProt Q05655); assay type: functional
[7] = target: Ribosomal protein S6 kinase beta-1 (Homo sapiens, UniProt P23443); assay type: functional;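 note: measured as one member of a kinome-wide profiling panel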
[8] = target: MAP kinase-activated protein kinase 5 (Homo sapiens, UniProt Q8IW41); assay type: functional;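 note: measured as one member of a kinome panel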
[9] = target: MAP kinase-activated protein kinase 2 (Homo sapiens, UniProt P49137); assay type: functional;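 note: measured as one member of a kinome-wide kinase panel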
[10] = target: Casein kinase I isoform gamma-1 (Homo sapiens, UniProt Q9HCP0); assay type: functional;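 note: measured as the CSNK1G1 member of a kinome profiling panel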
[11] = target: Testis-specific serine/threonine-protein kinase 1 (Homo sapiens, UniProt Q9BXA7); assay type: functional
[12] = target: Tyrosine-protein kinase Srms (Homo sapiens, UniProt Q9H3Y6); assay type: functional;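 note: SRMS measured as one member of a kinome-wide kinase profiling panel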
[13] = target: G protein-coupled receptor kinase 5 (Homo sapiens, UniProt P34947); assay: Navigating the Kinome. Panel member name: GPRK5; assay type: functional
[14] = target: Interleukin-1 receptor-associated kinase 1 (Homo sapiens, UniProt P51617); assay type: functional;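 note: IRAK1 tested as one member of a kinome panel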
[15] = target: Cyclin-dependent kinase 19 (Homo sapiens, UniProt Q9BWU1); assay: Navigating the Kinome. Panel member name: CDC2L6; assay type: functional
[16] = target: Serine/threonine-protein kinase DCLK1 (Homo sapiens, UniProt O15075); assay type: functional;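 note: affinity for DCLK1 (listed as DCAMKL1) measured as one member of a kinome-wide kinase profiling panel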
[17] = target: Tyrosine-protein kinase FRK (Homo sapiens, UniProt P42685); assay type: functional;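 note: FRK tested as one member of a kinome panel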
Sequence of Tyrosine-protein kinase FRK (P42685 whole entry): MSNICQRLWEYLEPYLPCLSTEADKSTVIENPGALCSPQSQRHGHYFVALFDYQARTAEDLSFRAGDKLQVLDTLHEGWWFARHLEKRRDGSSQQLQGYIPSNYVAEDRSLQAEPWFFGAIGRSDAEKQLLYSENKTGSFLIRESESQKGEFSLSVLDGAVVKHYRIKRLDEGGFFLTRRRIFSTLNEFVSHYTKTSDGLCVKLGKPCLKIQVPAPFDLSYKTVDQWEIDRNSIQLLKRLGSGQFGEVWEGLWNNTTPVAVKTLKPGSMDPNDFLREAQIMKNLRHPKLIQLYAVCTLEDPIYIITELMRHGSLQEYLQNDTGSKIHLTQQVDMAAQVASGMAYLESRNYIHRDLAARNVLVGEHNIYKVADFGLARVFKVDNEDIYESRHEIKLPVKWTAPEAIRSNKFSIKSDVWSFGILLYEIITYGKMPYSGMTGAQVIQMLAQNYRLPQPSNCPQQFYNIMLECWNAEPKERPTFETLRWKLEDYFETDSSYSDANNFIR

Sequence of Protein kinase C zeta type (Q05513 whole entry): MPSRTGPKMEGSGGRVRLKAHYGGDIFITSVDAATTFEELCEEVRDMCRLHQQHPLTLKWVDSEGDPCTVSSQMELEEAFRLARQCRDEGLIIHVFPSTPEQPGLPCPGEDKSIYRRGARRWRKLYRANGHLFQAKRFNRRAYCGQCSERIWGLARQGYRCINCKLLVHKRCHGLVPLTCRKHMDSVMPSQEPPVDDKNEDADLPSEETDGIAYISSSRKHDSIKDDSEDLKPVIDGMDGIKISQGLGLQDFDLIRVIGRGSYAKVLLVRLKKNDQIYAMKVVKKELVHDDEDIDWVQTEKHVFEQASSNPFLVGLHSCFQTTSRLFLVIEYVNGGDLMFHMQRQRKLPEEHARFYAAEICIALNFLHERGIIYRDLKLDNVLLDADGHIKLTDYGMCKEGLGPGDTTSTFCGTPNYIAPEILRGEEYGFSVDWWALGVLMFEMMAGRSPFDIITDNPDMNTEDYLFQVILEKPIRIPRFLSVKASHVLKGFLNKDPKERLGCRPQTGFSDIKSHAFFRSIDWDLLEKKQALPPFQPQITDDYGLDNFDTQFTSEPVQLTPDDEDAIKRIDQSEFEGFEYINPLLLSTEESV
Sequence of Ribosomal protein S6 kinase beta-1 (P23443 whole entry): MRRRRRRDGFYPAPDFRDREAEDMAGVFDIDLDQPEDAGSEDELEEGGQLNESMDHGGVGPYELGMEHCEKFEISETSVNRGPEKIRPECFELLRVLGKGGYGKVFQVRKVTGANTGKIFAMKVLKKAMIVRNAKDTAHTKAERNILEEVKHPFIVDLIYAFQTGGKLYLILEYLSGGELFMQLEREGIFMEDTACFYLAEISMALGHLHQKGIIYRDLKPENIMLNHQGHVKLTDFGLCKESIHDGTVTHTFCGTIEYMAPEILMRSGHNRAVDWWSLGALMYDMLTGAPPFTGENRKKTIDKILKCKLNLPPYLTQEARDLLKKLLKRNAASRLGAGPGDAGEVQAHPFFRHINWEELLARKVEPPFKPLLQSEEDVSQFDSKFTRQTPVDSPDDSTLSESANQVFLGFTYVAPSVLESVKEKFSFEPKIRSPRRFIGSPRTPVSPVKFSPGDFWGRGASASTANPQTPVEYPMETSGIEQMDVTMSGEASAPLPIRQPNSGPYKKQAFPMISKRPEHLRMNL
Sequence of Protein kinase C delta type (Q05655 whole entry): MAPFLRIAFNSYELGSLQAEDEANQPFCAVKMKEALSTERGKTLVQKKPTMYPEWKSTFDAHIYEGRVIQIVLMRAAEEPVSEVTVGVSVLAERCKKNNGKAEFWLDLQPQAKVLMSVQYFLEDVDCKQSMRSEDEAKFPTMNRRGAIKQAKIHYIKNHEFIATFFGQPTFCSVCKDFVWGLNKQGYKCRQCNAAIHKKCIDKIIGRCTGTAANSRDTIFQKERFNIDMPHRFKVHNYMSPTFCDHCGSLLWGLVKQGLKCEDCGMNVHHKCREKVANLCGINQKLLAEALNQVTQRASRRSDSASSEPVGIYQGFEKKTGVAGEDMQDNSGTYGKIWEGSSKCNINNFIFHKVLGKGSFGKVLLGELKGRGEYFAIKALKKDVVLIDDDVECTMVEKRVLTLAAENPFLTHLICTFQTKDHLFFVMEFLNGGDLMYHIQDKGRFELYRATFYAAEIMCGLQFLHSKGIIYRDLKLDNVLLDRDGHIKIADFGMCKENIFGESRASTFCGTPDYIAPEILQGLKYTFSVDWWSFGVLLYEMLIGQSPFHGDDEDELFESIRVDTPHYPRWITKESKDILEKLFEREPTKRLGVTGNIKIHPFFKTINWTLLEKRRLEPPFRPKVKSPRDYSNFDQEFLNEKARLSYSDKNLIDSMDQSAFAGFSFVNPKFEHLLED
Sequence of Testis-specific serine/threonine-protein kinase 1 (Q9BXA7 whole entry): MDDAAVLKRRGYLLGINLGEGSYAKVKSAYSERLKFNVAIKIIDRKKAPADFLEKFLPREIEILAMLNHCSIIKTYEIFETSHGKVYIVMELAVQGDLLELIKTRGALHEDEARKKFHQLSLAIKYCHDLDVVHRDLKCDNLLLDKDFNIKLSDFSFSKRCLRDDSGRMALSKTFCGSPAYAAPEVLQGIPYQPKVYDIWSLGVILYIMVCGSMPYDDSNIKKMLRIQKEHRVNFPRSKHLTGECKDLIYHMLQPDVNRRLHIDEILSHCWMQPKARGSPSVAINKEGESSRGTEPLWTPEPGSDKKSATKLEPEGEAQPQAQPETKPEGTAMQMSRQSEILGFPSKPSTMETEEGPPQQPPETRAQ
Sequence of Cyclin-dependent kinase 19 (Q9BWU1 whole entry): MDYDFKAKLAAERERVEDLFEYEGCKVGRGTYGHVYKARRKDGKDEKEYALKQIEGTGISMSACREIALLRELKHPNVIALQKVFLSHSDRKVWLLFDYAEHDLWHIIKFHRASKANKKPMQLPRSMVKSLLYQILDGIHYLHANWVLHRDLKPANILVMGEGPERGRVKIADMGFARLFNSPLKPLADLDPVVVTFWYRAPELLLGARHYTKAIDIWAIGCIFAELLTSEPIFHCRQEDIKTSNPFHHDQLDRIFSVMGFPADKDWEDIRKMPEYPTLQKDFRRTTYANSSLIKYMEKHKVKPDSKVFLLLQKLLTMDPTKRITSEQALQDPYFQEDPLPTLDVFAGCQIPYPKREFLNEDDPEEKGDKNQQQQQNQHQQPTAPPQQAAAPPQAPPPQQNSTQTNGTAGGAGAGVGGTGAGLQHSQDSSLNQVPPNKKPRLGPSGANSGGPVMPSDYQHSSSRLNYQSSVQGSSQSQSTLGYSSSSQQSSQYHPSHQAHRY
Sequence of Serine/threonine-protein kinase DCLK1 (O15075 whole entry): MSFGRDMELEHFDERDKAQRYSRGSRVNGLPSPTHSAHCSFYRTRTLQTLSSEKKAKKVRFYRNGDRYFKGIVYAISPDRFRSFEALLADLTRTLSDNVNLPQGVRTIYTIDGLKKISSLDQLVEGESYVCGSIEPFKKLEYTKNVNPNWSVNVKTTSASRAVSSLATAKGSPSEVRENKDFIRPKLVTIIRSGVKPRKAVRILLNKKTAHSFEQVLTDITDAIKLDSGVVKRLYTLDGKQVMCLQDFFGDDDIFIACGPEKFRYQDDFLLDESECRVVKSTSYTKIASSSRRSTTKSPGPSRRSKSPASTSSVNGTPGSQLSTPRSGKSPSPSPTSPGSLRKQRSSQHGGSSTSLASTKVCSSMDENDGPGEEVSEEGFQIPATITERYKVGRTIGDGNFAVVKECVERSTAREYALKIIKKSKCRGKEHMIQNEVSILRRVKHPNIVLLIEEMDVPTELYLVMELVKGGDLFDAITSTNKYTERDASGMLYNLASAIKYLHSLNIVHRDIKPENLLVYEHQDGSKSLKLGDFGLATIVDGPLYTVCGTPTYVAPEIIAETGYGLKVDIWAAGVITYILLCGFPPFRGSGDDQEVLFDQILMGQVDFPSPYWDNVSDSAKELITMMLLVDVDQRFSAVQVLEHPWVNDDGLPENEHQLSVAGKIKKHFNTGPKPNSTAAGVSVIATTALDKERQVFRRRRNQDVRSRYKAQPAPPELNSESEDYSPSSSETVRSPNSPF
Sequence of G protein-coupled receptor kinase 5 (P34947 whole entry): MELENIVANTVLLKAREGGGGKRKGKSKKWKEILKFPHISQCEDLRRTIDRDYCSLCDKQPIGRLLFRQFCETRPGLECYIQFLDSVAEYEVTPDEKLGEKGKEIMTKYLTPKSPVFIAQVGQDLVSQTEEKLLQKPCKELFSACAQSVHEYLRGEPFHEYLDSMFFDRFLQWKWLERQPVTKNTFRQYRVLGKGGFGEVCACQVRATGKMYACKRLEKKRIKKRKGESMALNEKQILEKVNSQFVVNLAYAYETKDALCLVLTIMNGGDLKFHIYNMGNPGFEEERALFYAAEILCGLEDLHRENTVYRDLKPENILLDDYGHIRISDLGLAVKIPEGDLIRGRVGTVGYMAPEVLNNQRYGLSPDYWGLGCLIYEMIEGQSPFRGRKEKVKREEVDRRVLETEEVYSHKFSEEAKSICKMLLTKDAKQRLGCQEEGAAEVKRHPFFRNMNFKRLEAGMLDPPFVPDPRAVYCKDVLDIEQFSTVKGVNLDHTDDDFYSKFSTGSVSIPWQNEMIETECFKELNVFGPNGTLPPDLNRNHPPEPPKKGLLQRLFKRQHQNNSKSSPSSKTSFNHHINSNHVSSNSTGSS
Sequence of MAP kinase-activated protein kinase 5 (Q8IW41 whole entry): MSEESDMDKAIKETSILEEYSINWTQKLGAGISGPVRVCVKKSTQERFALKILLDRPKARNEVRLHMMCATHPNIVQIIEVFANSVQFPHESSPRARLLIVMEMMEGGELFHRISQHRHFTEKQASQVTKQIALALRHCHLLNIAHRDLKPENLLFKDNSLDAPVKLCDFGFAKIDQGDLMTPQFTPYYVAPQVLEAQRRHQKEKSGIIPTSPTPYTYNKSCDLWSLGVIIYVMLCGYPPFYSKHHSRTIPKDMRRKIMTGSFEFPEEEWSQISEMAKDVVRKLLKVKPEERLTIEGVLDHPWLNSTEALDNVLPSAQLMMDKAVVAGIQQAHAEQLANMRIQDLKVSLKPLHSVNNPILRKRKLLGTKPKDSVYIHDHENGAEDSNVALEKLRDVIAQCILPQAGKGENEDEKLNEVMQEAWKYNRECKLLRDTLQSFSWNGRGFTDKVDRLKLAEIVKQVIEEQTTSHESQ

OCC[n+]1c2ccccc2nc2ccc(N3CCOCC3)cc21
active: IC50 [1] 28 µM
inconclusive: EC50 (Protein RecA) > 120 µM

Cc1cc(NC(c2ccc(Cl)cc2)c2ccc3cccnc3c2O)no1 (centres undefined)
active: EC50 [2] 22 µM | EC50 (cells) 6.45 µM | EC50 [3] 0.741 µM | AC50 [4] 0.677 µM

CS(=O)(=O)N(Cc1ccc2[nH]c(=O)c3cccn3c2c1)C1CC1
active: Ki [8] 0.01 µM | Ki [9] 0.0794 µM | Ki [10] 0.631 µM | Ki [12] 0.631 µM | Ki [14] 0.158 µM
inactive: Ki [5] > 7.94 µM | Ki [6] > 7.94 µM | Ki [7] > 6.31 µM | Ki [11] > 1.58 µM | Ki [13] > 3.98 µM | Ki [15] > 100 µM | Ki [16] > 10 µM | Ki [17] > 2.51 µM
